Data as given in ChEMBL document CHEMBL1201862, “PubChem BioAssay data set” (2004).
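Cells were grown in 96-well plates and exposed to each compound for 48 hours at five concentrations; endpoints were interpolated linearly between bracketing concentrations, or set to the highest concentration if not reached. Here, GI50 denotes the concentration required for 50% inhibition of growth.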 The source made the active and inactive calls. No stated cut-off is given here; in the data, active = GI50 up to about 1.1 µM and inactive = higher.

What was measured:
Experiment in all cases: NCI-60 cell line screen, 48 h
786-0 = test system: 786-0
A498 = test system: A498
A549 = test system: A549
ACHN = test system: ACHN
BT-549 = test system: BT-549
CAKI-1 = test system: CAKI-1
CCRF-CEM = test system: CCRF-CEM
COLO 205 = test system: COLO 205
DU-145 = test system: DU-145
EKVX = test system: EKVX
HCC 2998 = test system: HCC 2998
HCT-116 = test system: HCT-116
HCT-15 = test system: HCT-15
HL-60 = test system: HL-60
HOP-62 = test system: HOP-62
HOP-92 = test system: HOP-92
HT-29 = test system: HT-29
Hs-578T = test system: Hs-578T
IGROV-1 = test system: IGROV-1
K562 = test system: K562
KM12 = test system: KM12
LOX IMVI = test system: LOX IMVI
M14 = test system: M14
MCF7 = test system: MCF7
MDA-MB-231 = test system: MDA-MB-231
MDA-MB-435 = test system: MDA-MB-435
MDA-N = test system: MDA-N
MOLT-4 = test system: MOLT-4
Malme-3M = test system: Malme-3M
NCI-H23 = test system: NCI-H23
NCI-H460 = test system: NCI-H460
NCI-H522 = test system: NCI-H522
NCI/ADR-RES = test system: NCI/ADR-RES
OVCAR-3 = test system: OVCAR-3
OVCAR-4 = test system: OVCAR-4
OVCAR-5 = test system: OVCAR-5
OVCAR-8 = test system: OVCAR-8
PC-3 = test system: PC-3
RPMI-8226 = test system: RPMI-8226
RXF 393 = test system: RXF 393
SF-268 = test system: SF-268
SF-295 = test system: SF-295
SF-539 = test system: SF-539
SK-MEL-28 = test system: SK-MEL-28
SK-MEL-2 = test system: SK-MEL-2
SK-MEL-5 = test system: SK-MEL-5
SN12C = test system: SN12C
SNB-19 = test system: SNB-19
SNB-75 = test system: SNB-75
SR = test system: SR
SW-620 = test system: SW-620
T47D = test system: T47D
TK-10 = test system: TK-10
U-251 = test system: U-251
UACC-257 = test system: UACC-257
UACC-62 = test system: UACC-62
UO-31 = test system: UO-31
NCI-H226 = test system: NCI-H226
SK-OV-3 = test system: SK-OV-3

Measured: GI50

COc1ccc2c(c1)[C@@H]1c3cc(OC)c(OC)cc3CCN1CCC2
79.4 µM: HCT-15
inactive: 786-0 > 100 µM | A498 > 100 µM | A549 > 100 µM | ACHN > 100 µM | BT-549 68.9 µM | CAKI-1 > 100 µM | CCRF-CEM 87.7 µM | COLO 205 > 100 µM | DU-145 > 100 µM | EKVX > 100 µM | HCC 2998 > 100 µM | HCT-116 76.2 µM | HL-60 > 100 µM | HOP-62 > 100 µM | HOP-92 9.18 µM | HT-29 93.1 µM | Hs-578T > 100 µM | IGROV-1 > 100 µM | K562 65.3 µM | KM12 > 100 µM | LOX IMVI 98.4 µM | M14 > 100 µM | MCF7 83.4 µM | MDA-MB-231 > 100 µM | MDA-MB-435 > 100 µM | MDA-N > 100 µM | MOLT-4 33.3 µM | Malme-3M > 100 µM | NCI-H23 > 100 µM | NCI-H460 31.4 µM | NCI-H522 > 100 µM | NCI/ADR-RES > 100 µM | OVCAR-3 > 100 µM | OVCAR-4 35.3 µM | OVCAR-5 > 100 µM | OVCAR-8 > 100 µM | PC-3 73.5 µM | RPMI-8226 54.8 µM | RXF 393 > 100 µM | SF-268 > 100 µM | SF-295 > 100 µM | SF-539 > 100 µM | SK-MEL-28 > 100 µM | SK-MEL-2 > 100 µM | SK-MEL-5 36.7 µM | SN12C > 100 µM | SNB-19 > 100 µM | SNB-75 > 100 µM | SR 76 µM | SW-620 > 100 µM | T47D 31.6 µM | TK-10 > 100 µM | U-251 > 100 µM | UACC-257 19.7 µM | UACC-62 > 100 µM | UO-31 72.9 µM

O=[N+]([O-])c1ccc(Cl)cc1-n1nc(-c2ccccc2)cc1-c1ccccc1
inactive: 786-0 > 100 µM | A498 > 100 µM | A549 > 100 µM | ACHN > 100 µM | BT-549 > 100 µM | CAKI-1 > 100 µM | CCRF-CEM > 100 µM | COLO 205 > 100 µM | DU-145 > 100 µM | EKVX > 100 µM | HCC 2998 > 100 µM | HCT-116 99.8 µM | HL-60 > 100 µM | HOP-62 > 10 µM | HOP-92 > 100 µM | HT-29 97.3 µM | Hs-578T 81.3 µM | IGROV-1 > 100 µM | K562 > 100 µM | KM12 > 100 µM | M14 > 100 µM | MCF7 95.1 µM | MDA-MB-231 > 100 µM | MDA-MB-435 > 100 µM | MDA-N > 100 µM | MOLT-4 > 100 µM | Malme-3M > 100 µM | NCI-H226 > 100 µM | NCI-H23 > 100 µM | NCI-H460 > 100 µM | NCI-H522 > 100 µM | NCI/ADR-RES > 100 µM | OVCAR-3 > 100 µM | OVCAR-4 > 100 µM | OVCAR-5 > 100 µM | OVCAR-8 > 100 µM | PC-3 > 100 µM | RPMI-8226 > 100 µM | SF-268 > 100 µM | SF-295 > 100 µM | SF-539 50.5 µM | SK-MEL-28 > 100 µM | SK-MEL-2 > 100 µM | SK-MEL-5 > 100 µM | SK-OV-3 > 100 µM | SN12C > 100 µM | SNB-19 > 100 µM | SNB-75 > 100 µM | SR > 100 µM | SW-620 > 100 µM | T47D 22.3 µM | TK-10 > 100 µM | U-251 > 100 µM | UACC-257 > 100 µM | UACC-62 > 100 µM | UO-31 > 100 µM
> 100 µM: HCT-15

CSc1nc(SC)c2c(C)cn(Cc3ccccc3)c2n1
70.1 µM: HCT-15
inactive: 786-0 > 100 µM | A498 > 100 µM | A549 > 100 µM | ACHN > 100 µM | BT-549 > 100 µM | CAKI-1 > 100 µM | CCRF-CEM 51.4 µM | COLO 205 > 100 µM | DU-145 > 100 µM | EKVX > 100 µM | HCC 2998 44.1 µM | HCT-116 69.2 µM | HL-60 34 µM | HOP-62 > 100 µM | HOP-92 20.6 µM | HT-29 41.7 µM | Hs-578T > 100 µM | IGROV-1 > 100 µM | KM12 > 100 µM | LOX IMVI 60.4 µM | M14 > 100 µM | MCF7 45.4 µM | MDA-MB-231 > 100 µM | MDA-MB-435 33.2 µM | MDA-N 30.3 µM | MOLT-4 39 µM | Malme-3M > 100 µM | NCI-H226 > 100 µM | NCI-H23 > 100 µM | NCI-H460 80.2 µM | NCI-H522 98.4 µM | NCI/ADR-RES > 100 µM | OVCAR-3 > 100 µM | OVCAR-4 > 100 µM | OVCAR-5 > 100 µM | OVCAR-8 > 100 µM | PC-3 > 100 µM | RPMI-8226 85.9 µM | SF-268 > 100 µM | SF-295 > 100 µM | SF-539 93.1 µM | SK-MEL-28 > 100 µM | SK-MEL-2 > 100 µM | SK-MEL-5 > 100 µM | SK-OV-3 > 100 µM | SN12C > 100 µM | SNB-19 > 100 µM | SNB-75 79.6 µM | SR 32.4 µM | SW-620 > 100 µM | T47D 33.9 µM | TK-10 > 100 µM | U-251 > 100 µM | UACC-62 > 100 µM | UO-31 56.8 µM

CCCCCCCCCCCCCCCC(=O)OC(COC(C)=O)CO[PH](=O)O (stereo not given)
24 µM: HCT-15
inactive: 786-0 20.3 µM | A498 > 100 µM | A549 19.5 µM | ACHN 27.7 µM | BT-549 > 100 µM | CAKI-1 41.9 µM | CCRF-CEM 37.2 µM | COLO 205 96.8 µM | DU-145 71.4 µM | EKVX 49.3 µM | HCC 2998 21.4 µM | HL-60 31.9 µM | HOP-92 12 µM | Hs-578T 11.8 µM | IGROV-1 22.3 µM | K562 > 100 µM | KM12 18.3 µM | LOX IMVI 23.2 µM | M14 14.7 µM | MCF7 > 100 µM | MDA-MB-231 21.7 µM | MDA-MB-435 29.5 µM | MDA-N 31.3 µM | MOLT-4 31.3 µM | Malme-3M 34.8 µM | NCI-H460 31.6 µM | NCI-H522 15.1 µM | NCI/ADR-RES 23.1 µM | OVCAR-3 > 100 µM | OVCAR-4 58.2 µM | OVCAR-5 16.1 µM | OVCAR-8 18.1 µM | PC-3 30.5 µM | RPMI-8226 78.2 µM | RXF 393 36 µM | SF-268 19.3 µM | SF-295 17.6 µM | SF-539 20.8 µM | SK-MEL-28 35.2 µM | SK-MEL-2 19.5 µM | SK-MEL-5 > 100 µM | SN12C 48.5 µM | SNB-19 36.5 µM | SNB-75 22.4 µM | SR 24.9 µM | SW-620 33.2 µM | T47D 53.2 µM | TK-10 29 µM | U-251 21.6 µM | UACC-257 34 µM | UACC-62 37.3 µM | UO-31 26.3 µM

O=C(O)c1ccccc1C(=O)c1ccc2c(c1)Cc1ccccc1-2
inactive: 786-0 > 100 µM | A498 > 100 µM | A549 33.3 µM | ACHN 56.6 µM | BT-549 78.9 µM | CAKI-1 > 100 µM | COLO 205 57 µM | DU-145 > 100 µM | EKVX 68.5 µM | HCC 2998 28.1 µM | HCT-116 73.5 µM | HOP-62 > 100 µM | HOP-92 > 100 µM | HT-29 48.8 µM | Hs-578T > 100 µM | IGROV-1 > 100 µM | K562 57.9 µM | KM12 64.1 µM | LOX IMVI 85.7 µM | M14 > 100 µM | MCF7 > 100 µM | MDA-MB-231 > 100 µM | MDA-MB-435 63.4 µM | MDA-N 48.8 µM | MOLT-4 > 100 µM | Malme-3M 80.9 µM | NCI-H226 36.1 µM | NCI-H23 > 100 µM | NCI-H460 46.1 µM | NCI-H522 41.9 µM | NCI/ADR-RES 99.1 µM | OVCAR-3 > 100 µM | OVCAR-4 > 100 µM | OVCAR-5 > 100 µM | OVCAR-8 83.2 µM | PC-3 66.4 µM | RPMI-8226 60.8 µM | RXF 393 > 100 µM | SF-268 > 100 µM | SF-295 69.7 µM | SF-539 > 100 µM | SK-MEL-28 53.7 µM | SK-MEL-2 > 100 µM | SK-MEL-5 > 100 µM | SK-OV-3 > 100 µM | SN12C > 100 µM | SNB-19 > 100 µM | SNB-75 > 100 µM | SR 91.6 µM | SW-620 > 100 µM | T47D 80.4 µM | TK-10 52.1 µM | U-251 54 µM | UACC-257 > 100 µM | UACC-62 66.8 µM | UO-31 > 100 µM
57.5 µM: HCT-15
